Laboratory results taken from patent US20260060250A1, “HERBICIDAL PYRIDONE DERIVATIVES” (SYNGENTA CROP PROTECTION AG, priority 2022, published 2026).

Tests used:
Assay type in all cases: in vivo
[1] = system: Ipomoea hederacea (IPOHE); assay: Pre-emergence Test (Table B1); design: key: 5=81-100%; 4=61-80%; 3=41-60%; 2=21-40%; 1=0-20%; 0=inactive; conditions: 1000 g/ha, evaluated after 13 days
[2] = system: Echinochloa crus-galli (ECHCG); assay: Post-emergence Test (Table B2); design: key: 5=81-100%; 4=61-80%; 3=41-60%; 2=21-40%; 1=0-20%; 0=inactive; conditions: evaluated after 13 days
Procedure: (§1) Seeds of a variety of test species are sown in standard soil in pots (Amaranthus palmeri (AMAPA), Setaria faberi (SETFA), Echinochloa crus-galli (ECHCG), (Amaranthus retroflexus (AMARE), Zea mays (ZEAMX), Ipomoea hederacea (IPOHE)). After 8 days cultivation under controlled conditions in a glasshouse (at 24° C./16° C., day/night; 14 hours light; 65% humidity), the plants are sprayed with an aqueous spray solution derived from the formulation of the technical active ingredient in acetone/water (50:50) solution containing 0.5% Tween 20 (polyoxyethelyene sorbitan monolaurate, CAS RN 9005-64-5). Compounds are applied at 1000 g/ha unless otherwise stated. The test plants are then grown in a glasshouse under controlled conditions in a glasshouse (at 24° C./16° C., day/night; 14 hours light; 65% humidity) and watered twice daily. After 13 days the test is evaluated for the percentage damage caused to the plant.

[3] = system: Ipomoea hederacea (IPOHE); assay: Post-emergence Test (Table B2); design: key: 5=81-100%; 4=61-80%; 3=41-60%; 2=21-40%; 1=0-20%; 0=inactive; conditions: evaluated after 13 days
Procedure: as §1

Zea mays (ZEAMX) [4] = assay: Post-emergence Test (Table B2); design: key: 5=81-100%; 4=61-80%; 3=41-60%; 2=21-40%; 1=0-20%; 0=inactive; conditions: evaluated after 13 days
Procedure: as §1

Zea mays (ZEAMX) [5] = assay: Pre-emergence Test (Table B1); design: key: 5=81-100%; 4=61-80%; 3=41-60%; 2=21-40%; 1=0-20%; 0=inactive; conditions: 1000 g/ha, evaluated after 13 days
[6] = system: Amaranthus retroflexus (AMARE); assay: Post-emergence Test (Table B2); conditions: evaluated after 13 days
Procedure: as §1

[7] = system: Amaranthus palmeri (AMAPA); assay: Post-emergence Test (Table B2); conditions: evaluated after 13 days
Procedure: as §1

Setaria faberi (SETFA) [8] = assay: Post-emergence Test (Table B2); conditions: evaluated after 13 days
Procedure: as §1

Setaria faberi (SETFA) [9] = assay: Pre-emergence Test (Table B1); design: key: 5=81-100%; 4=61-80%; 3=41-60%; 2=21-40%; 1=0-20%; 0=inactive; conditions: 1000 g/ha, evaluated after 13 days
[10] = system: Amaranthus palmeri (AMAPA); assay: Pre-emergence Test (Table B1); conditions: 1000 g/ha, evaluated after 13 days
[11] = system: Amaranthus retroflexus (AMARE); assay: Pre-emergence Test (Table B1); conditions: 1000 g/ha, evaluated after 13 days
[12] = system: Echinochloa crus-galli (ECHCG); assay: Pre-emergence Test (Table B1); design: key: 5=81-100%; 4=61-80%; 3=41-60%; 2=21-40%; 1=0-20%; 0=inactive; conditions: 1000 g/ha, evaluated after 13 days
[13] = lower rate of 250 g per hectare

Row | SMILES | percentage damage caused to the plant, IPOHE [1] | percentage damage caused to the plant, ECHCG ([2]; 1000 g/ha) | percentage damage caused to the plant, IPOHE ([3]; 1000 g/ha) | percentage damage caused to the plant, ZEAMX (Zea mays (ZEAMX) [4]; 1000 g/ha) | percentage damage caused to the plant, ZEAMX (Zea mays (ZEAMX) [5]) | percentage damage caused to the plant, AMARE ([6]; 1000 g/ha) | percentage damage caused to the plant, AMAPA ([7]; 1000 g/ha) | percentage damage caused to the plant, SETFA (Setaria faberi (SETFA) [8]; 1000 g/ha) | percentage damage caused to the plant, SETFA (Setaria faberi (SETFA) [9]) | percentage damage caused to the plant, AMAPA [10] | percentage damage caused to the plant, AMARE [11] | percentage damage caused to the plant, ECHCG [12] | percentage damage caused to the plant, ECHCG [2, 13] | percentage damage caused to the plant, IPOHE [3, 13] | percentage damage caused to the plant, ZEAMX (Zea mays (ZEAMX) [4]; [13]) | percentage damage caused to the plant, AMARE [6, 13] | percentage damage caused to the plant, AMAPA [7, 13] | percentage damage caused to the plant, SETFA (Setaria faberi (SETFA) [8]; [13])
1 | CCn1c(C)c(-c2cc(C(=O)OC(C)C(F)(F)F)ccc2F)c(=O)c(C(=O)O)c1-c1ccc(Cl)c(Cl)c1 (centres unmarked) [Compound 7, 2-(3,4-dichlorophenyl)-1-ethyl-5-[2-fluoro-5-(2,2,2-trifluoro-1-methyl-ethoxy)carbonyl-phenyl]-6-methyl-4-oxo-pyridine-3-carboxylic acid] | 1 (1=0-20%) | 3 (3=41-60%) | 1 (1=0-20%) | 2 (2=21-40%) | 1 (1=0-20%) | 5 (5=81-100%) | 5 (5=81-100%) | 4 (4=61-80%) | 2 (2=21-40%) | 5 (5=81-100%) | 5 (5=81-100%) | 2 (2=21-40%) | – | – | – | – | – | –
2 | CCn1c(C)c(-c2cc(C(=O)OC(C)C3CC3)ccc2F)c(=O)c(C(=O)O)c1-c1ccc(Cl)c(Cl)c1 (centres unmarked) [Compound 8, 5-[5-(1-cyclopropylethoxycarbonyl)-2-fluoro-phenyl]-2-(3,4-dichlorophenyl)-1-ethyl-6-methyl-4-oxo-pyridine-3-carboxylic acid] | 0 | 1 (1=0-20%) | 1 (1=0-20%) | 3 (3=41-60%) | 0 | 4 (4=61-80%) | 5 (5=81-100%) | 2 (2=21-40%) | 0 | 4 (4=61-80%) | 5 (5=81-100%) | 0 | – | – | – | – | – | –
3 | CCn1c(C)c(-c2cc(C(=O)OC(C)C3CCCC3)ccc2F)c(=O)c(C(=O)O)c1-c1ccc(Cl)c(Cl)c1 (centres unmarked) [Compound 16, 5-[5-(1-cyclopentylethoxycarbonyl)-2-fluoro-phenyl]-2-(3,4-dichlorophenyl)-1-ethyl-6-methyl-4-oxo-pyridine-3-carboxylic acid] | – | 0 | 0 | 1 (1=0-20%) | – | 5 (5=81-100%) | 4 (4=61-80%) | 1 (1=0-20%) | – | – | – | – | – | – | – | – | – | –
4 | C#CCC(C)OC(=O)c1ccc(F)c(-c2c(C)n(CC)c(-c3ccc(Cl)c(Cl)c3)c(C(=O)O)c2=O)c1 (centres unmarked) [Compound 17, 2-(3,4-dichlorophenyl)-1-ethyl-5-[2-fluoro-5-(1-methylbut-3-ynoxycarbonyl)phenyl]-6-methyl-4-oxo-pyridine-3-carboxylic acid] | 2 (2=21-40%) | 2 (2=21-40%) | – | 1 (1=0-20%) | 1 (1=0-20%) | 5 (5=81-100%) | 5 (5=81-100%) | 2 (2=21-40%) | 2 (2=21-40%) | 5 (5=81-100%) | 5 (5=81-100%) | 1 (1=0-20%) | – | – | – | – | – | –
5 | CCn1c(C)c(-c2cc(C(=O)OC(C)C#N)ccc2F)c(=O)c(C(=O)O)c1-c1ccc(Cl)c(Cl)c1 (centres unmarked) [Compound 41, 5-[5-(1-cyanoethoxycarbonyl)-2-fluoro-phenyl]-2-(3,4-dichlorophenyl)-1-ethyl-6-methyl-4-oxo-pyridine-3-carboxylic acid] | – | – | – | – | – | – | – | – | – | – | – | – | 0 | 1 (1=0-20%) | 0 | 2 (2=21-40%) | 2 (2=21-40%) | 2 (2=21-40%)
